Laboratory results reported in a melting point compilation (Tetko et al.; mined from patent text by program, amines drawn as free bases though some values may be those of a salt).

SMILES | melting point
COC(=O)CCc1cc2cc(Br)ccc2n1S(=O)(=O)c1ccccc1 | 109 to 113 °C
C[C@@H](S[C@H]1CO[C@H](c2ccc(C(=O)Nc3ccncc3)cc2)OC1)[C@](O)(Cn1cncn1)c1ccc(F)cc1F | 133 °C
O=C1c2ccccc2N(Cc2ccccc2)C2=NCCN12 | 203 to 205 °C
CN1CCN(Cc2ccc(N)cc2C(F)(F)F)CC1 | 119 to 121 °C
O=C(Cc1ccccc1)Nc1ccc2oc3c(c2c1)CCCC3 | 180 to 181 °C
O=C(O)c1ccc2c3c(ccc(C(O)=NC4CCCCC4)c13)CC2 | 264 to 265 °C
COc1cc(C(=O)C=Cc2ccccc2)ccc1O | 61 to 64 °C
CCOC(=O)c1ncn2c1CNC(=O)c1ccccc1-2 | 248 to 250 °C
CC(=O)OC1COC(Br)C(OC(C)=O)C1OC(C)=O (configuration not stated) | 92 °C
CCN(c1ccc(C#N)cc1Cl)S(=O)(=O)c1ccc(C)cc1 | 112 to 114 °C
CC(=O)N1CCN(Cc2ccc(O)cc2)CC1 | 130 to 132 °C
CC1=Cc2cc(C#N)ccc2OC1(C)C | 55 °C
CON(C)C(=O)c1cc(O)cc2cc(-c3ccc(O)cc3)oc12 | 125 to 127 °C
COC(=O)C1CCC2(C3(C)OCCO3)CC1C(=O)O2 (configuration not stated) | 69 to 71 °C
O=C(NCC1CCN(C[C@H]2COc3cccc(Cl)c3O2)CC1)c1cccnc1 | 52 to 54 °C
Nc1sc2c(c1C(=O)c1ccc3ccccc3c1)CCN(Cc1ccccc1Cl)C2 | 169 to 171 °C
CN1CCN(C(=O)c2ccc3n2Cc2ccc(C(=O)O)cc2N(C(=O)c2ccc(C4CCCCC4)cc2)C3)CC1 | 195 to 210 °C
O=C(Nc1ccccc1)c1nn(-c2cccc(C(F)(F)F)c2)ccc1=O | 181 to 182 °C
Nc1ccc2[nH]c(C(=O)N3CCC(Cc4ccccc4)CC3)cc2c1 | 175 to 180 °C
O=C1NC(=C2CCCCC2)Sc2ccccc21 | 146 to 147 °C
CCN(CC)c1nc(CO)cs1 | 67 to 69 °C

SMILES | melting point
Cn1nc(-c2ccccc2)c(N)c1-c1ccccc1 | 80 to 81 °C
CC(C)(C#N)c1cc(C#N)cc(Cn2ccnc2)c1 | 89 to 92 °C
CC(=O)Nc1ccccc1SCc1ncon1 | 89 °C
COC(=O)/C=C/c1cnc2ccccc2c1 | 118 to 120 °C
C=CCN(C(C)=O)c1cccc(-c2ccnc3c(C#N)cnn23)c1 | 135 to 137 °C
N#Cc1cc(NC(=O)c2cc3ccccc3s2)ccc1N1CCC(N2CCCCC2)CC1 | 275 °C
COC1Nc2c(O)cccc2C(=O)N2CCCC12 (configuration not stated) | 150 to 153 °C
O=C(Cl)N1CCC(Oc2ccc(F)c(Cl)c2)C1 (configuration not stated) | 63 to 65 °C
CCCCCCCCCCCCSC(C)Cn1ccnc1 (configuration not stated) | 79.5 to 81 °C
COC(=O)C(=O)c1cn2c3c(cccc13)C(OC(C)=O)CC2 (configuration not stated) | 165 to 168 °C
Cn1c(C(F)(F)F)cc(=O)n(-c2cc(OC3CC=CNC3=O)c(Cl)cc2F)c1=O (configuration not stated) | 91 °C
Nc1ccncc1Oc1ccc2ccccc2c1 | 117 to 118 °C
NCCC(=O)N(c1ccccc1)c1ccccc1 | 50 °C
N=C(N)c1ccc2ncn(CC(=O)N3CCC(Cc4ccccc4)CC3)c2c1 | 68 to 70 °C
O=C(O)C(NC(=O)C(F)(F)F)c1ccc(Cl)cc1 (configuration not stated) | 170 to 172 °C
CCSC1(SCC)C(=O)CC2C3CCC4=CC(=O)C=CC4(C)C3(F)C(O)CC21C (configuration not stated) | 268 to 270 °C
CCNC(=O)Cc1ccc2ccn(C3CCN(CCc4ccccc4F)CC3)c2c1 | 147 to 149 °C
c1ccc(C(Nn2cncn2)c2ccccc2)cc1 | 142 to 145 °C
Cc1cc(C2=NN(C)C(=O)C2)c(Cl)cc1Cl | 196 to 198 °C
CC(=O)OCC(=O)C1CC(OS(=O)(=O)c2c(C)cc(C)cc2C)C2C3CCC4CC(OC(C)=O)CCC4(C)C3CC(OC(C)=O)C12C (configuration not stated) | 156 to 157 °C
Nc1cccc(-c2ccc(CCN3CCc4ccccc4C3)cc2)n1 | 130 to 132 °C

SMILES | melting point
N#Cc1ccc(F)cc1C(F)(F)C(F)(F)c1ccccc1 | 68 to 70 °C
O=C(O)C1=Cc2cc(CO)ccc2OC1C(F)(F)F (configuration not stated) | 178 to 181 °C
Nc1cccnc1CCCCNc1ncc(Cc2cccnc2)c(=O)[nH]1 | 130 to 132 °C
O=C(NCc1ccc(Cl)cc1Cl)N1CCc2[nH]cnc2C1CCC1CCCCC1 (configuration not stated) | 185 to 187 °C
COc1ccc(C(Cl)C(C)(C)[N+](=O)[O-])cc1 (configuration not stated) | 40 to 41 °C
CCOC(=O)N1c2cc(OC)c(OC)cc2C(=O)C(=CNC)C1C (configuration not stated) | 154 to 156 °C
CCSC(=S)N1Cc2[nH]c3ccccc3c2CC1C(=O)O (configuration not stated) | 177 to 178 °C
CN1CN(C)C(=N[N+](=O)[O-])N(Cc2cnc(Cl)s2)C1 | 125 to 126 °C
CCCN1CCN(Cc2ccc3c(c2O)OCO3)CC1 | 115 to 117 °C
CSc1ccc(N2CCOC2=O)cc1[N+](=O)[O-] | 180 °C
CC(=O)C(C#N)c1cc(Cl)cc(Cl)c1Cl (configuration not stated) | 134 to 135 °C
NC(CS(=O)(=O)c1ccccc1)=NNC(=O)c1cc2ccccc2o1 | 205 to 220 °C
CC(=O)c1ccc(C(C)Oc2cncc(C(=O)Nc3ccc(C#N)cc3)c2)cc1 (configuration not stated) | 181 to 183 °C
Cc1c(-c2ccc(O)cc2O)c(=O)oc2cc(F)ccc12 | 266 to 268 °C
FC(F)(F)c1cccc2c1c(N1CCOCC1)nc1c(-c3nc(C4CC4)no3)ncn12 | 197 to 199 °C
Cn1nc(C(=O)NCc2ccc(Cl)cc2)c(=O)c2cc(CN3CCOCC3)ccc21 | 190 to 192 °C
OCC1C(c2ccc(F)cc2)CCC12C=Cc1ccccc12 (configuration not stated) | 84 to 86 °C
Cc1ccc(-c2cc(S(=O)(=O)c3ccc(N)cc3)cc(N3CCCC3)n2)cc1 | 250 to 251 °C
CC(=O)N1CC(C)(C)c2cc3nc[nH]c3cc21 | 214 to 216 °C

Now from value to compound:

melting point | SMILES
76 to 78 °C | CCN(CC)CCNC(=O)c1cnc2ccc(I)cc2c1Cl
188 to 190 °C | Cn1c(=O)[nH]c(=O)c2c1ncn2Cc1noc(Cc2ccccc2)n1
163 to 165 °C | CCOC(=O)c1nn(-c2cccc(Br)c2)c(=O)c2c(N)scc12
168 to 170 °C | CCn1c(=O)c(C(=O)O)c(-c2ccccc2Cl)c2cc(C)c(C)cc21
121 to 123 °C | COC(=O)CCc1ccc(C(c2cc(F)ccc2F)S(=O)(=O)c2ccc(Cl)cc2)nc1 (configuration not stated)
121 to 123 °C | Cc1cc(-c2cccc(NC(=O)C3CCC3)c2)n2ncc(C(=O)c3cccs3)c2n1
115 to 118 °C | CC(C)CCOC(=O)c1cccc(-c2cn(C)cc(-n3cccn3)c2=O)c1
195 to 196 °C | CCOC(=O)CCCn1c(Nc2cnc(N3CCCC3)cc2C)nc2c(Cl)ccc(C(CC)CC)c21
283 to 284 °C | COc1cccc2c1C(=O)c1c(OC)cc(-c3nc4ccccc4n3C)cc1C2=O
205 to 207 °C | COc1ccc2c(c1OCc1ccccc1)CC(C(=O)O)N(C(=O)Cc1c(Cl)cccc1Cl)C2 (racemic)
89 °C | CCOC(=O)C(C)(C)S(=O)c1ccc2c(-c3ccc(Cl)cc3)noc2c1 (configuration not stated)
260 to 263 °C | CCNc1nc(-c2ccc(NC(=O)NCc3cccnc3)cc2)ccc1C(=O)NC
64 to 66 °C | COCc1nc(C)c2c(n1)N(Cc1ccc(Br)cc1)C(=O)CC2
136 to 140 °C | COC(=O)c1ccc(CN2C(=O)C3(COc4cc5c(cc43)CCO5)c3ccccc32)cc1 (configuration not stated)
230 to 233 °C | CC(C)Oc1cccc(-n2c(NC(=O)Nc3ccc(Br)cc3)nc3ccccc3c2=O)c1
104 to 109 °C | O=C(O)CCCOc1cc(Cn2cc(C3c4ccccc4C=Cc4ccccc43)c(=S)[nH]c2=O)cc(OCC(=O)O)c1
178 to 180 °C | Cn1nc2cccc(OCCF)c2c1S(N)(=O)=O
156 °C | COc1ccc(Br)cc1-c1cc(-c2cccc(Br)c2)no1
233 to 235 °C | Cc1ccc(C(=O)Nc2c[nH]nc2C(=O)NCCO)cn1
120 to 124 °C | CC(C)(C)OC(=O)CCc1csc(CCNc2nc(N)c3ncn(C4OC(CO)C(O)C4O)c3n2)c1 (configuration not stated)
197 to 199 °C | CC(Oc1ncn(-c2cccc(Cl)c2)n1)C(=O)O (configuration not stated)

melting point | SMILES
> 250 °C | CCOC(=O)C(C)Oc1ccc(N(C)c2nc(Cl)c3cc(Cl)ccc3n2)cc1 (configuration not stated)
239 °C | Cc1ccccc1-c1cc2cnc(N)nc2n(C)c1=O
221 to 223 °C | CCC(=O)Nc1cccc2c1C(=O)N(C1CCC(=O)NC1=O)C2=O (configuration not stated)
114 to 119 °C | COC(=O)c1c[nH]c(Sc2ccccc2C)c1
310 to 311 °C | CCOC(=O)c1cc2c(cn1)[nH]c1ccc(S(=O)(=O)N(C)C)cc12
204 to 206 °C | COC(=O)c1ccc(-c2n[nH]c3c2CCc2nc(C(C)C)c(C(C)C)nc2-3)cc1
138 °C | CC1C(=O)N(c2cccc(Cl)c2)N=C1N (configuration not stated)
99 to 100 °C | Cc1sc(-c2ccccc2)nc1COc1ccc(CON=C(CCC(=O)O)c2ccccc2)cc1
56 to 58 °C | CCOC(=O)C(Cc1ccc(OCCN2CCC(C)(C)c3cc(C(=O)c4ccccc4)ccc32)cc1)OCC(F)(F)F (configuration not stated)
> 250 °C | NC(=O)c1cnc2c(NC(=O)c3c(Cl)cccc3Cl)cccc2c1
95 to 96 °C | COc1cc(CCCO)ccc1OCc1coc(/C=C/c2ccccc2)n1
81 to 83 °C | CCOC(=O)C(C)(C)NC(=O)C(Br)c1ccccc1 (configuration not stated)
98 to 101 °C | C=CCONC(=O)c1nc(-c2ccc(Cl)c(OC)c2F)nc(N)c1C=C
49 to 50 °C | COCCCNCC(=O)Nc1ccc(C(=O)OC)cc1
167 to 170 °C | COC(=O)COc1ccc(-c2ccc3c(c2)c(C)c(-c2ccccc2)n3Cc2ccccc2)cc1
182 to 183 °C | CCOC(=O)c1cc(=O)c2c(CC)cc(Cl)cc2[nH]1
223 to 226 °C | CCNc1nc(-c2ccc(NC(=O)NCc3ccc(N)nc3)cc2)ccc1C(=O)NC
129 to 130 °C | CCCOCCOC(=O)C1=C(C)NC(C)=C(c2nc(CCl)no2)C1c1cccc([N+](=O)[O-])c1 (configuration not stated)
207 to 210 °C | CC(C)(c1ccc(N)c([N+](=O)[O-])c1)c1ccc(N)c([N+](=O)[O-])c1
53 to 54 °C | C=CCOc1ccc2nc(OCC=C(C)C)ccc2c1
